From PubChem BioAssay (NCI)
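Grown in 96-well plates, cells were treated for 48 hours with each compound at five concentrations. Insufficient inhibition: endpoint recorded as highest concentration tested. The concentration for 50% growth inhibition is given as GI50. At the TGI there is no net growth.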

Columns and labels:
Assay in all cases: DTP human tumour cell line panel, 48 h
786-0 renal = system: 786-0 renal
A498 renal = system: A498 renal
A549 NSCLC = system: A549 NSCLC
ACHN renal = system: ACHN renal
BT-549 breast = system: BT-549 breast
CAKI-1 renal = system: CAKI-1 renal
CCRF-CEM leukemia = system: CCRF-CEM leukemia
COLO 205 colon = system: COLO 205 colon
DU-145 prostate = system: DU-145 prostate
EKVX NSCLC = system: EKVX NSCLC
HCC-2998 colon = system: HCC-2998 colon
HCT-116 colon = system: HCT-116 colon
HCT-15 colon = system: HCT-15 colon
HL-60(TB) leukemia = system: HL-60(TB) leukemia
HOP-62 NSCLC = system: HOP-62 NSCLC
HOP-92 NSCLC = system: HOP-92 NSCLC
HS 578T breast = system: HS 578T breast
HT29 colon = system: HT29 colon
IGROV1 ovarian = system: IGROV1 ovarian
K-562 leukemia = system: K-562 leukemia
KM12 colon = system: KM12 colon
LOX IMVI melanoma = system: LOX IMVI melanoma
M14 melanoma = system: M14 melanoma
MALME-3M melanoma = system: MALME-3M melanoma
MCF7 breast = system: MCF7 breast
MDA-MB-231 breast = system: MDA-MB-231 breast
MOLT-4 leukemia = system: MOLT-4 leukemia
NCI-H226 lung = system: NCI-H226 lung
NCI-H23 lung = system: NCI-H23 lung
NCI-H460 lung = system: NCI-H460 lung
NCI-H522 lung = system: NCI-H522 lung
NCI/ADR-RES ovarian = system: NCI/ADR-RES ovarian
OVCAR-3 ovarian = system: OVCAR-3 ovarian
OVCAR-4 ovarian = system: OVCAR-4 ovarian
OVCAR-5 ovarian = system: OVCAR-5 ovarian
OVCAR-8 ovarian = system: OVCAR-8 ovarian
PC-3 prostate = system: PC-3 prostate
RPMI-8226 leukemia = system: RPMI-8226 leukemia
RXF 393 renal = system: RXF 393 renal
SF-268 CNS = system: SF-268 CNS
SF-295 CNS = system: SF-295 CNS
SF-539 CNS = system: SF-539 CNS
SK-MEL-2 melanoma = system: SK-MEL-2 melanoma
SK-MEL-28 melanoma = system: SK-MEL-28 melanoma
SK-MEL-5 melanoma = system: SK-MEL-5 melanoma
SK-OV-3 ovarian = system: SK-OV-3 ovarian
SN12C renal = system: SN12C renal
SNB-19 CNS = system: SNB-19 CNS
SNB-75 CNS = system: SNB-75 CNS
SR leukemia = system: SR leukemia
SW-620 colon = system: SW-620 colon
T-47D breast = system: T-47D breast
TK-10 renal = system: TK-10 renal
U251 CNS = system: U251 CNS
UACC-257 melanoma = system: UACC-257 melanoma
UACC-62 melanoma = system: UACC-62 melanoma
UO-31 renal = system: UO-31 renal
MDA-MB-435 = system: MDA-MB-435

N#CC1=C(N)Oc2cc3c(cc2C1c1cccs1)OCO3 (stereo unspecified)
GI50 (786-0 renal): 0.686 µM | TGI (786-0 renal): > 68.3 µM | GI50 (A498 renal): 0.234 µM | TGI (A498 renal): 10.2 µM | GI50 (A549 NSCLC): 0.583 µM | TGI (A549 NSCLC): > 70.9 µM | GI50 (ACHN renal): 3.63 µM | TGI (ACHN renal): > 100 µM | GI50 (BT-549 breast): 0.882 µM | TGI (BT-549 breast): 37.6 µM | GI50 (CAKI-1 renal): 0.542 µM | TGI (CAKI-1 renal): > 100 µM | GI50 (CCRF-CEM leukemia): 0.404 µM | TGI (CCRF-CEM leukemia): > 29.8 µM | GI50 (COLO 205 colon): 0.366 µM | TGI (COLO 205 colon): 1.66 µM | GI50 (DU-145 prostate): 0.824 µM | TGI (DU-145 prostate): > 100 µM | GI50 (EKVX NSCLC): 1.21 µM | TGI (EKVX NSCLC): > 100 µM | GI50 (HCC-2998 colon): 0.775 µM | TGI (HCC-2998 colon): 11.6 µM | GI50 (HCT-116 colon): 0.407 µM | TGI (HCT-116 colon): > 62.3 µM | GI50 (HCT-15 colon): 0.486 µM | TGI (HCT-15 colon): > 100 µM | GI50 (HL-60(TB) leukemia): 0.247 µM | TGI (HL-60(TB) leukemia): 0.899 µM | GI50 (HOP-62 NSCLC): 0.484 µM | TGI (HOP-62 NSCLC): > 100 µM | GI50 (HOP-92 NSCLC): 0.66 µM | TGI (HOP-92 NSCLC): 26.2 µM | GI50 (HS 578T breast): 0.411 µM | GI50 (HT29 colon): 0.377 µM | TGI (HT29 colon): 15.2 µM | GI50 (IGROV1 ovarian): 1.1 µM | TGI (IGROV1 ovarian): > 100 µM | GI50 (K-562 leukemia): 0.205 µM | TGI (K-562 leukemia): > 100 µM | GI50 (KM12 colon): 0.325 µM | TGI (KM12 colon): > 59.7 µM | GI50 (LOX IMVI melanoma): 0.679 µM | TGI (LOX IMVI melanoma): > 61.3 µM | GI50 (M14 melanoma): 0.387 µM | TGI (M14 melanoma): > 100 µM | GI50 (MALME-3M melanoma): 0.58 µM | TGI (MALME-3M melanoma): > 100 µM | GI50 (MCF7 breast): 0.343 µM | TGI (MCF7 breast): > 62.3 µM | GI50 (MDA-MB-231 breast): 5.41 µM | TGI (MDA-MB-231 breast): > 100 µM | GI50 (MOLT-4 leukemia): 0.504 µM | TGI (MOLT-4 leukemia): > 100 µM | GI50 (NCI-H226 lung): 0.653 µM | TGI (NCI-H226 lung): > 100 µM | GI50 (NCI-H23 lung): 0.428 µM | TGI (NCI-H23 lung): > 100 µM | GI50 (NCI-H460 lung): 0.373 µM | TGI (NCI-H460 lung): 24.4 µM | GI50 (NCI-H522 lung): 0.19 µM | TGI (NCI-H522 lung): 0.639 µM | GI50 (NCI/ADR-RES ovarian): 0.232 µM | TGI (NCI/ADR-RES ovarian): 0.707 µM | GI50 (OVCAR-3 ovarian): 0.236 µM | TGI (OVCAR-3 ovarian): 0.644 µM | GI50 (OVCAR-4 ovarian): 4.5 µM | TGI (OVCAR-4 ovarian): > 100 µM | GI50 (OVCAR-5 ovarian): 2.82 µM | TGI (OVCAR-5 ovarian): > 85.4 µM | GI50 (OVCAR-8 ovarian): 0.587 µM | TGI (OVCAR-8 ovarian): > 52.7 µM | GI50 (PC-3 prostate): 1.16 µM | TGI (PC-3 prostate): > 100 µM | GI50 (RPMI-8226 leukemia): 0.451 µM | TGI (RPMI-8226 leukemia): 40.7 µM | GI50 (RXF 393 renal): 0.311 µM | TGI (RXF 393 renal): 2.7 µM | GI50 (SF-268 CNS): 0.654 µM | TGI (SF-268 CNS): > 85.6 µM | GI50 (SF-295 CNS): 0.393 µM | TGI (SF-295 CNS): > 100 µM | GI50 (SF-539 CNS): 0.747 µM | TGI (SF-539 CNS): 11.2 µM | GI50 (SK-MEL-2 melanoma): 0.252 µM | TGI (SK-MEL-2 melanoma): 0.783 µM | GI50 (SK-MEL-28 melanoma): 1.12 µM | TGI (SK-MEL-28 melanoma): > 100 µM | GI50 (SK-MEL-5 melanoma): 0.34 µM | TGI (SK-MEL-5 melanoma): > 43.5 µM | GI50 (SK-OV-3 ovarian): 0.575 µM | TGI (SK-OV-3 ovarian): 8.1 µM | GI50 (SN12C renal): 0.723 µM | TGI (SN12C renal): > 100 µM | GI50 (SNB-19 CNS): 1.36 µM | TGI (SNB-19 CNS): > 100 µM | GI50 (SNB-75 CNS): 0.367 µM | TGI (SNB-75 CNS): 4.74 µM | GI50 (SR leukemia): 0.27 µM | TGI (SR leukemia): > 100 µM | GI50 (SW-620 colon): 0.356 µM | TGI (SW-620 colon): > 100 µM | GI50 (T-47D breast): 0.595 µM | TGI (T-47D breast): > 70.5 µM | GI50 (TK-10 renal): 1.86 µM | TGI (TK-10 renal): > 67.8 µM | GI50 (U251 CNS): 0.397 µM | TGI (U251 CNS): 31.9 µM | GI50 (UACC-257 melanoma): 0.502 µM | TGI (UACC-257 melanoma): > 100 µM | GI50 (UACC-62 melanoma): 0.485 µM | TGI (UACC-62 melanoma): > 100 µM | GI50 (UO-31 renal): 1.24 µM | TGI (UO-31 renal): > 100 µM

CCCCCCCCCOC(=O)c1cnc(Cl)cn1
TGI (786-0 renal): > 100 µM | TGI (A549 NSCLC): 64.8 µM | TGI (ACHN renal): 33.5 µM | TGI (BT-549 breast): 63.3 µM | TGI (CAKI-1 renal): 31.8 µM | TGI (CCRF-CEM leukemia): > 100 µM | TGI (COLO 205 colon): 51.1 µM | TGI (DU-145 prostate): 33.8 µM | TGI (EKVX NSCLC): 41.6 µM | TGI (HCT-116 colon): 31.5 µM | TGI (HCT-15 colon): 32 µM | TGI (HOP-62 NSCLC): 44.9 µM | TGI (HOP-92 NSCLC): > 100 µM | TGI (HS 578T breast): 68 µM | TGI (HT29 colon): 86.1 µM | TGI (IGROV1 ovarian): 36 µM | TGI (K-562 leukemia): > 100 µM | TGI (KM12 colon): 33.4 µM | TGI (LOX IMVI melanoma): 34.4 µM | TGI (M14 melanoma): 36.3 µM | TGI (MALME-3M melanoma): 39.4 µM | TGI (MCF7 breast): 57.7 µM | TGI (MDA-MB-231 breast): 35.6 µM | TGI (MDA-MB-435): 40.8 µM | TGI (MOLT-4 leukemia): > 100 µM | TGI (NCI-H226 lung): 32.7 µM | TGI (NCI-H23 lung): 33 µM | TGI (NCI-H460 lung): 41.5 µM | TGI (NCI-H522 lung): 36.1 µM | TGI (NCI/ADR-RES ovarian): 48.2 µM | TGI (OVCAR-4 ovarian): 71.1 µM | TGI (OVCAR-5 ovarian): 70.8 µM | TGI (OVCAR-8 ovarian): 69.6 µM | TGI (PC-3 prostate): 24 µM | TGI (RPMI-8226 leukemia): 63.5 µM | TGI (SF-268 CNS): 46.3 µM | TGI (SF-295 CNS): 34.6 µM | TGI (SF-539 CNS): 58.1 µM | TGI (SK-MEL-2 melanoma): 40.2 µM | TGI (SK-MEL-28 melanoma): 52.7 µM | TGI (SK-MEL-5 melanoma): 32.9 µM | TGI (SK-OV-3 ovarian): > 100 µM | TGI (SN12C renal): 36.9 µM | TGI (SNB-19 CNS): 47.5 µM | TGI (SNB-75 CNS): 51.5 µM | TGI (SR leukemia): > 100 µM | TGI (SW-620 colon): 32.5 µM | TGI (T-47D breast): 51.2 µM | TGI (TK-10 renal): 43.9 µM | TGI (U251 CNS): 33.9 µM | TGI (UACC-257 melanoma): 45.6 µM | TGI (UACC-62 melanoma): 33.3 µM | TGI (UO-31 renal): 34.4 µM
